This passage reports GI50 and TGI results from PubChem BioAssay (NCI).

Assay in all cases: NCI-60 cell line screen, 48 h
Assay [1] relates to 786-0 renal.
The subject of assay [2] is BT-549 breast.
For assay [3], the system named is HCT-15 colon.
For assay [4], the system named is HOP-62 NSCLC.
The subject of assay [5] is HT29 colon.
In assay [6] the test system is K-562 leukemia.
The subject of assay [7] is MDA-MB-231 breast.
Assay [8] concerns NCI-H522 lung.
In assay [9] the test system is RPMI-8226 leukemia.
Assay [10] concerns T-47D breast.

Values joined by “and” are separate entries in the source; they are usually repeats but may differ in a detail not shown here. Equal entries are not always repeated.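 Each compound was tested at five concentrations against cells in 96-well plates for 48 hours. The concentration for 50% growth inhibition is given as GI50. Definition used: TGI = concentration required for complete inhibition of growth.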 A value given as a limit tells only on which side of the number the result lay.

With `N#CC1C=Cc2c(ccc3ccccc23)N1C(=O)c1ccccc1` (stereo not given), the GI50 was 0.909 µM in assay [1]; 2.29 µM in assay [2]; 0.184 µM in [3]; 0.387 µM in [4]; 0.0701 µM in assay [5]; 0.0537 µM in assay [6]. Moreover, the GI50 in [7] was 0.763 µM; in assay [8] it was 0.0274 µM; in [9], 0.39 µM; in [10], 0.103 µM. The TGI in [1] was over 100 µM; in assay [2] it was over 60.1 µM; in assay [3], over 100 µM; in [4] it was over 100 µM; in assay [5] it was 3.82 µM; in [6], over 100 µM. Besides, the TGI in assay [7] is over 100 µM; in [8], 0.0924 µM; in assay [9] it was over 100 µM; in assay [10], over 100 µM.

`COC(=O)C(C)NC(=O)c1ccccc1I(OS(=O)(=O)C(F)(F)F)c1ccccc1` (stereo not given): the GI50 in assay [1] is 25 µM; in [2] it was 23 µM; in [3], 16 µM; in assay [4] it was 29.5 µM; in assay [5] it was 23.1 µM; in assay [6], over 42.4 µM. Moreover, the GI50 is 15.6 µM in assay [7], 23.9 µM in assay [8], 3 µM in assay [9] and 36.3 µM in [10]. The TGI was 51 µM in assay [1]; 57.3 µM in assay [2]; 41.7 µM in assay [3]; 90.1 µM in assay [4]; over 61.4 µM in assay [5]; over 63.7 µM in [6]. The TGI is 34.5 µM in [7], 64.9 µM in assay [8], 25.8 µM in assay [9] and over 100 µM in assay [10].

For the compound `C=CC1=C(C)C2=NC1=CC1=NC(=C(CC)/C1=C\O)C=C1N=C3C(=C1C)C(=O)[C@H](C(=O)OC)C3=C1NC(=C2)[C@@H](C)[C@@H]1CCC(=O)O`, the TGI in [1], in assay [2], in [3], in [5], in assay [6] and in assay [7] was over 100 µM in each case. For the same compound, the TGI in assay [8] and in [10] was over 100 µM throughout.

Regarding `CCCCCCCCCCCCCCCC1=NC(C)(C)CN1C(C)C`, the GI50 was 1.59 µM in assay [1]; 5.12 µM in assay [2]; 1.47 µM in assay [3]; 1.63 µM in [4]; 0.448 µM in [6]; 1.61 µM in [7]. The GI50 in assay [8] was 1.55 µM; in [9] it was 1.04 µM; in [10] it was 1.93 µM. Besides, the TGI in assay [1] was determined as 2.94 µM; in [2] it was 23.7 µM; in [3], 2.79 µM; in [4] it was 2.98 µM; in [6] it was 1.72 µM; in [7], 3.1 µM. The TGI amounted to 3.02 µM in [8], 2.82 µM in assay [9] and 4.54 µM in assay [10].

Regarding `COc1cc(-c2csc(NC(=O)Nc3cc(Cl)cc(Cl)c3)n2)cc(OC)c1OC`, the GI50 is 1.84 µM in [1]; 2.2 µM in [2]; 2.33 µM in assay [3]; 2.02 µM in assay [5]; 4.4 µM in assay [6]; 1.92 µM in [7]. For the same compound, the GI50 in [8] was 2.05 µM; in assay [9], 2.42 µM; in [10] it was 1.67 µM. The TGI in assay [1] was 3.33 µM; in assay [2], 4.65 µM; in assay [3], 6.97 µM; in assay [5], 4.41 µM; in assay [6], over 100 µM; in assay [7], 4.12 µM. The figures for the TGI in assay [8], in [9] and in [10] were 7.09 µM, 9.24 µM and 3.74 µM, respectively.

In the case of `O=C(O)Cn1cc([N+](=O)[O-])c(=O)c2ccccc21`, the TGI in [1], in [2], in [3], in assay [4], in [5] and in assay [6] was over 100 µM in each case. Also, the TGI is 32.9 µM in assay [7], over 100 µM in [8] and 32.8 µM in [10].

In the case of `COc1cccc2c1n([O-])c1cccc(OC)c1[n+]2=O`, the GI50 in assay [1] was 8.78 µM; in assay [2] it was 8.1 µM; in assay [3] it was 4.95 µM; in assay [4], 11 µM; in assay [6], 6.13 µM; in [7], 20.9 µM. In addition, the GI50 in assay [8] is 5.77 µM; in [9], 4.67 µM; in assay [10], 2.39 µM. Also, the TGI in assay [1] is 28.8 µM; in assay [2], 21.8 µM; in assay [3] it was over 100 µM; in assay [4], 36.7 µM; in assay [6], over 100 µM; in assay [7] it was over 100 µM. Further, the TGI in assay [8] was found to be 28.1 µM; in [9], 25 µM; in [10], 10.3 µM.

For `O=C1C(Cl)=C(Nc2cccc(C(F)(F)F)c2)C(=O)N1Cc1ccc(Cl)cc1`, the GI50 is under 0.0324 µM in assay [1]; 0.154 µM in [2]; 0.166 µM in [3]; 0.835 µM in assay [4]; 0.595 µM in assay [5]; 1.33 µM in assay [6]. Besides, the GI50 in [7] was 0.207 µM; in assay [8], 2.11 µM; in assay [10], 2.11 µM. For the same compound, the TGI was 13.5 µM in [1]; 20.3 µM in assay [2]; 12.5 µM in [3]; 17.4 µM in [4]; 24.9 µM in assay [5]; over 100 µM in assay [6]. Besides, the TGI is 8.74 µM in [7], 25.2 µM in [8] and 30.8 µM in assay [10].

With `O=C(NC(=O)c1ccccc1[N+](=O)[O-])Nc1ccc(Oc2ncc(Cl)cn2)c(C(F)(F)F)c1`, the TGI was 24.6 µM in assay [1]; over 38.1 µM in assay [3]; 66.4 µM in assay [4]; 0.167 µM in assay [5]; over 100 µM in [6]; 2.6 µM in [7]. The TGI in [8] is 0.16 µM; in [9], over 67.9 µM; in [10] it was over 89.1 µM.

Take `O=C1C(Cl)=C(Nc2cccc(O)c2)C(=O)N1Cc1ccc(Cl)cc1Cl`: the GI50 in assay [1] was 1.94 µM; in assay [3] it was 7.45 µM; in assay [4], 14.4 µM; in assay [5], 1.29 µM; in assay [6], 4.81 µM; in [7], 1.17 µM. The GI50 in [8] is 1.43 µM; in [9], 1.08 µM; in [10], 19.1 µM. In addition, the TGI in assay [1] came out at 18.8 µM; in [3] it was 22.6 µM; in [4], 30.5 µM; in [5] it was 90.3 µM; in assay [6], 29.7 µM; in assay [7], 11 µM. Besides, the TGI was 9.95 µM in [8], 14 µM in [9] and over 100 µM in [10].

For the compound `CNCCN=c1ccc2c3c1c(O)c1c(O)ccc(=O)c1c3[nH]n2CCNCCO`, the GI50 in [1] is 0.05 µM; in [3], 1.52 µM; in [5], 0.587 µM; in assay [6] it was 0.224 µM and 0.296 µM; in [7] it was 0.97 µM and 0.504 µM; in assay [8], 0.194 µM and 0.627 µM. In addition, in assay [9], the GI50 is 0.129 µM and 0.294 µM. Moreover, the TGI was 1.79 µM and 0.677 µM in [1]; 2.43 µM in [2]; 24.8 µM and 41.2 µM in assay [3]; 3.71 µM and 9.04 µM in assay [5]; 3.66 µM and 10.9 µM in assay [6]; 5.45 µM and 9.63 µM in assay [7]. The TGI in assay [9] is 5.04 µM and 12.4 µM; in assay [10], 5.35 µM.

`O=C(CCCCC(=O)N/N=C\c1ccccc1O)N/N=C\c1ccccc1O`: the GI50 in assay [1] is 5.13 µM; in assay [2], 32 µM; in assay [3], 2.02 µM; in assay [4], 4.12 µM; in assay [5], over 100 µM; in assay [6], 3.92 µM. Besides, the GI50 in assay [7] is 1.9 µM. Also, the TGI in [1] was over 100 µM; in [2] it was over 100 µM; in assay [3], over 100 µM; in assay [4] it was 71.8 µM; in assay [5], over 100 µM; in assay [6], over 100 µM. This compound came in with a TGI in assay [7] of 57.5 µM.

On to `COc1ccccc1C(=O)N(C)c1ccc(Cl)c(C(=O)OC(C)C)c1`, for which the TGI in assay [1] is over 100 µM; in [2], 97.7 µM; in assay [3] it was over 100 µM; in assay [5], over 100 µM; in [7] it was over 100 µM; in assay [8] it was over 100 µM. Also, the TGI in assay [9] is over 100 µM; in [10], 85.7 µM.

On to `CC(=O)[CH-]C(=O)c1ccccc1.CC(=O)[CH-]C(=O)c1ccccc1.CC[O-].O=C1c2ccccc2C(=O)c2c1ccc(O)c2[O-].[Ti+4]`, for which the TGI is over 100 µM in assay [1]; over 100 µM in assay [3]; over 100 µM in assay [4]; over 100 µM in assay [5]; over 100 µM in assay [6]; 60.3 µM in assay [8]. In assay [9], this compound displayed a TGI of 64.7 µM.
